Values joined by “and” are separate entries in the source; they are usually repeats but may differ in a detail not shown here. Equal values may be shown once. Each block holds one compound with its values, some of them ahead of it. Peptide text beside a SMILES is read from it. * marks the point of attachment. Cbz = O=C(OCc1ccccc1)*
Assays:
R15B [1] = biological target: T1, R15B (Homo sapiens, UniProt Q5SWA1); experiment: R15B levels on immunoblots of HeLa cell lysates; type: cell-based; details: HeLa cells, Raphin1 10 μM; MG-132 10 μM; NSM-873 or CB-5083 1 μM
T1 construct: endogenous in cells; host or cells: HeLa
T1 sequence (Q5SWA1 1-713): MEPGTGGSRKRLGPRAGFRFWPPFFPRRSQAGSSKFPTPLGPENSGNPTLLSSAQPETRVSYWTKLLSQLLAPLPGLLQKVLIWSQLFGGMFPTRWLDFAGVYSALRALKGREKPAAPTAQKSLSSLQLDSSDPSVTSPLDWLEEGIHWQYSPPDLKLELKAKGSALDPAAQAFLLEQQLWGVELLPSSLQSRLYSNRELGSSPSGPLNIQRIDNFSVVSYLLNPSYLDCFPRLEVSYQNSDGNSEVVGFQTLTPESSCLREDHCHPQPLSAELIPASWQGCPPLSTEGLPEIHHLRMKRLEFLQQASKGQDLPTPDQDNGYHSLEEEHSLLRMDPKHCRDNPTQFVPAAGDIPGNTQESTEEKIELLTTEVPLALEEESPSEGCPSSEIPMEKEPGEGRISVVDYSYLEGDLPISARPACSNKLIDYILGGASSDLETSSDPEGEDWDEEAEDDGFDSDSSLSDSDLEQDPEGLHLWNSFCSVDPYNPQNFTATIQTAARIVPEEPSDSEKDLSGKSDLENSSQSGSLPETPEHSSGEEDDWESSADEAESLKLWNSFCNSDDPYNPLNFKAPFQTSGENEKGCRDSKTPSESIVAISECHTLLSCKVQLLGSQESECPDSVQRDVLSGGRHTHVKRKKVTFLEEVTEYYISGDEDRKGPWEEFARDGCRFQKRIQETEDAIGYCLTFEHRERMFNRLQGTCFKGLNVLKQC
Description: HeLa or MEF cells (90,000 cells/mL) were plated in 12-well plates (1 mL/well). The following day cells were treated as indicated; the medium was removed, fresh medium containing compound added and incubated at 37°C for the times indicated. The time course was performed in reverse order to facilitate collecting all samples at the same time. At the end of treatment cells were washed two times with ice-cold PBS and lysed in 150 μL Laemmli Buffer. […] Proteins were transferred to the nitrocellulose membrane using the iBlot 2 system (ThermoFisher Scientific). Membrane was blocked in 5% skimmed milk for 30 min and then probed with primary antibodies followed by incubation with the appropriate horseradish peroxidase-conjugated secondary antibodies (Promega). Proteins were visualized using ECL Prime (GE Healthcare) and imaged in the Chemi-Smart 5000 (Vilber-Lourmat, France) or ChemiDoc Touch (BioRad). Bands were quantified using ImageJ (NIH, USA).

PP1c [2] = biological target: T2, PP1c (Homo sapiens, UniProt P36873); experiment: PP1c catalytic activity assay (DiFMUP, EnzChek); details: his-PP1c 30 nM
Description: Residual activity of PP1c was measured using the EnzChek Phosphatase Assay Kit (ThermoFisher Scientific) according to the supplier’s instructions, with minor modifications.

R15A = R15A (Homo sapiens, UniProt O75807); experiment: Limited trypsin digestion of R15A; parameters: cDNAs encoding amino acids 325-636 of R15A and 340-698 of R15B were cloned into pMAL-c5x; made in house; host or cells: E. coli BL21-Gold (DE3) pLysS; details: R15 3 μM, compound 100 μM, trypsin 5 nM, 5 min, 22°C
Description: (§1) Reactions were initiated by addition of 5 nM of trypsin from bovine pancreas (Sigma-Aldrich), made up in PBS, and allowed to proceed for 5 min at 22°C, with shaking at 350 rpm. […] Proteins were visualized by staining with InstantBlue Protein Stain (Expedeon).

R15B [3] = biological target: T3, R15B (Homo sapiens, UniProt Q5SWA1); experiment: Limited trypsin digestion of R15B; details: R15 3 μM, compound 100 μM, trypsin 5 nM, 5 min, 22°C
T3 construct: cDNAs encoding amino acids 325-636 of R15A and 340-698 of R15B were cloned into pMAL-c5x; made in house; host or cells: E. coli BL21-Gold (DE3) pLysS
Description: as §1

[4] = biological target: T4, R15A-PP1c holophosphatase (R15A^325-636-PP1c) (Homo sapiens, UniProt O75807); experiment: Holophosphatase SPR, compounds binding to reconstituted R15A-PP1c; details: for Binding to R15A-PP1c (in words): SPR, up to 25 μM
T4 construct: cDNAs encoding amino acids 325-636 of R15A and 340-698 of R15B were cloned into pMAL-c5x; made in house; host or cells: R15A: E. coli BL21-Gold (DE3) pLysS; bio-PP1c: Sf9 insect cells (baculovirus)
Description: (§2) Small molecules were stored as 50 mM stock solutions in 100% DMSO. […] If necessary the concentration range was adjusted to accurately determine the KD depending on the initial results. […] This was followed by 1 min stabilization period, to wash off any unspecific binding. […] After each dilution series, the surface was regenerated using 3 M NaCl for 90 s. […] In order to be able to correct for small variations in DMSO concentration between samples, eight solvent samples ranging from 0.06 to 8% DMSO were injected every 50th cycle. The flow cell temperature was 20°C.

PP1c [5] = biological target: T2, PP1c; experiment: SPR, compounds binding to PP1c alone immobilized on streptavidin chip; parameters: cDNA encoding for human PP1cγ (aa 1-322) was cloned into two baculovirus transfer vectors; made in house; host or cells: Sf9 insect cells (baculovirus); details: PP1c immobilized on SA chip
Description: as §2

HeLa cells = experiment: Assessment of translation rates (35S-methionine), HeLa cells; type: cell-based, human; details: 10 μM; for Label (%), newly synthesized proteins (35S-methionine): HeLa, 0 h = 100
Description: HeLa or MEF cells (90,000 cells/mL) were plated in 12-well plates (1 mL/well). The following day cells were treated as indicated; the medium was removed, fresh medium containing compound added and incubated at 37°C for the times indicated. The time course was performed in reverse order to facilitate labeling all samples at the same time. After the treatment the cells were labeled with 100 μCi/mL ^35S-methionine (Hartmann Analytic) for 10 min at 37°C (300 μL fresh medium containing 3 μL ^35S-methionine was added to each well). Note that cells were not starved in methionine-free media before labeling with ^35S-methionine for monitoring protein synthesis. The labeled cells were then washed twice with ice-cold PBS and lysed in 120 μL Laemmli Buffer. Lysates were transferred to 1.5 mL eppendorf tubes, boiled at 95°C for 5 min, sonicated and resolved on Bolt SDS-PAGE 4%–12% Bis-Tris gels (ThermoFisher Scientific). Gels were then stained with InstantBlue (Expedeon) and after the gels had been imaged they were transferred to a 20% ethanol, 7% acetic acid, 4% glycerol solution for 10 min. This was to prevent the gels from cracking while drying. The gels were transferred to filter paper and dried using a gel dryer. The gels were then exposed to a Storage Phosphor Screen (GE Healthcare) and analyzed by phosphorimaging using a Typhoon Imager Scanner (GE Healthcare).

[6] = biological target: T5, R15B-PP1c holophosphatase (R15B^340-698-PP1c) (Homo sapiens, UniProt Q5SWA1); experiment: Holophosphatase SPR, compounds binding to reconstituted R15B-PP1c; details: SPR, up to 25 μM
T5 construct: cDNAs encoding amino acids 325-636 of R15A and 340-698 of R15B were cloned into pMAL-c5x; made in house; host or cells: R15B: E. coli BL21-Gold (DE3) pLysS; bio-PP1c: Sf9 insect cells (baculovirus)
Description: as §2

[7] = tested on: eIF2α phosphorylation (HeLa cells); experiment: Protein analyses on immunoblots, HeLa cells; type: cell-based, human; details: unstressed, 10 μM, 0-10 h
Description: HeLa or MEF cells (90,000 cells/mL) were plated in 12-well plates (1 mL/well). The following day cells were treated as indicated; the medium was removed, fresh medium containing compound added and incubated at 37°C for the times indicated. The time course was performed in reverse order to facilitate collecting all samples at the same time. At the end of treatment cells were washed two times with ice-cold PBS and lysed in 150 μL Laemmli Buffer. Lysates were transferred to 1.5 mL eppendorf tubes, boiled at 95°C for 5 min, sonicated and resolved on Bolt SDS-PAGE 4%–12% Bis-Tris gels (ThermoFisher Scientific). Proteins were transferred to the nitrocellulose membrane using the iBlot 2 system (ThermoFisher Scientific). Membrane was blocked in 5% skimmed milk for 30 min and then probed with primary antibodies followed by incubation with the appropriate horseradish peroxidase-conjugated secondary antibodies (Promega). Proteins were visualized using ECL Prime (GE Healthcare) and imaged in the Chemi-Smart 5000 (Vilber-Lourmat, France) or ChemiDoc Touch (BioRad). Bands were quantified using ImageJ (NIH, USA). The following primary antibodies were used: e-IF2α-P (ThermoFisher Scientific (#44-728G), 1:1,000), e-IF2α (Abcam (#ab5369), 1:1,000), tubulin (Sigma-Aldrich (#T5168), 1:4,000), BiP (BD Biosciences PharMingen (#610978), 1:1,000), ATF4 (Santa Cruz Biotechnology (#sc-200), 1:500), Ppp1r15a (Proteintech (#10449-1-AP), 1:1,000), Ppp1r15b (Proteintech (#14634-1-AP), 1:1,000) and CHOP (ABR Affinity BioReagents (#MA1-250), 1:1,000).

liver = experiment: Oil Red O staining of liver (steatosis); type: in vivo, mouse; details: wild-type mice, single dose 40 mg/kg; Raphin1 also 2 mg/kg for 10 weeks
Description: Treatment- and test-naive C57BL/6J males and females were used. Mice received a single dose of Raphin1 or cycloheximide (CHX, Sigma-Aldrich) at 40 mg/kg at 3 months of age or were treated chronically with Raphin1 at 2 mg/kg from 4 weeks of age for 10 weeks before the analysis. Mice were culled by cervical dislocation, liver was extracted, fresh-frozen in the O.C.T. compound (VWR International) and kept at −80°C until use. Oil Red O staining was performed on 10 μm thick frozen cryosections (Leica CM1850). Sections were washed in 60% propanol and stained for 20 min at room temperature with filtered 0.33% Oil Red O solution (VWR International). After rinsing with distilled water sections were counterstained with hematoxylin (VWR, diluted 1:15) for 1 min. Images were acquired with a 40X objective using SCN400F scanner (Leica).

T2 sequence (P36873 1-322): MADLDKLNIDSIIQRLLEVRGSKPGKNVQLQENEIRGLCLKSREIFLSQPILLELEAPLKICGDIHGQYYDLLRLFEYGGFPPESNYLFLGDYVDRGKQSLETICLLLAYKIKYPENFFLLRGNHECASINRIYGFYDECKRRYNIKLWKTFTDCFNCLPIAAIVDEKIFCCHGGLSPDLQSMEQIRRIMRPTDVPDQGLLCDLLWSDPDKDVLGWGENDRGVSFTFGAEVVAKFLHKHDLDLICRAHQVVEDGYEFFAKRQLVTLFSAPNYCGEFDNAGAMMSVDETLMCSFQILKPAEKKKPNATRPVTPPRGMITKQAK
T4 sequence (O75807 325-636, stated change not applied): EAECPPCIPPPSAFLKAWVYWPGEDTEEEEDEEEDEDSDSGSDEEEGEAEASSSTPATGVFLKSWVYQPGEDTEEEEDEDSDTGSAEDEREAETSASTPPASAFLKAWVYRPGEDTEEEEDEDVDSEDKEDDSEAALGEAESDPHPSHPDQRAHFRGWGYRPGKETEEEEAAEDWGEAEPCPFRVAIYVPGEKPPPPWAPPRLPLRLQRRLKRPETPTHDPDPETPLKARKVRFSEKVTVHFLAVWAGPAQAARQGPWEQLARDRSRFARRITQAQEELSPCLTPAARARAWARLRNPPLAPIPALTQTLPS
T4 sequence (P36873 1-322 partner): as the sequence (P36873 1-322) above
T5 sequence (P36873 1-322 partner limits assumed, one chain of several): as the sequence (P36873 1-322) above
Sequence of R15A (O75807 325-636, stated change not applied): as the sequence (O75807 325-636, stated change not applied) above

Structure (SMILES): Cc1cc2c(C(N)=O)cccc2n1-c1nc2c(c(NCc3ccccc3)n1)COCC2 [CB-5083]
Effect of co-treatment on the Raphin1-induced decrease in R15B (R15B [1]): essentially abrogated

Structure (SMILES): COC[C@@H]([C@H](O)[C@H](O)C(=O)NCC[C@H](C)c1nc(/C=C/C[C@@H]2O[C@]3(C[C@@H](O)[C@@H]2C)O[C@H]([C@H](C[C@H](O)[C@H](C)[C@H](O)[C@H](C)/C=C(C)/C(C)=C/C=C/C(C)=C\C#N)OC)[C@H](OP(=O)(O)O)C3(C)C)co1)N(C)C [Calyculin A]
Inhibition of PP1c (dephosphorylation of difluoro-4-methylumbelliferyl phosphate) (PP1c [2]): inhibited

Protease sensitivity of R15B (limited proteolysis, conformational change) (R15B [3]): neither GBZ nor Sephin1 affected | Inhibition of PP1c (dephosphorylation of difluoro-4-methylumbelliferyl phosphate) (PP1c [2]): did not inhibit | Binding to R15A-PP1c (in words) [4]: strongly bound | Kd ([4]; holophosphatase reconstituted on SA chip, 20°C, mean ± SD, read-out: KD, steady-state affinity for R15A-PP1c): 122 nM and < 10000 nM | Binding to PP1c alone (in words) (PP1c [5]): did not measurably bind | Binding to R15B-PP1c (in words) [6]: did not bind or only weakly bound
Structure (SMILES): N=C(N)N/N=C/c1c(Cl)cccc1Cl [GBZ, Guanabenz]
Protease sensitivity of R15A (limited proteolysis, conformational change) (R15A): increased resistance to limited-proteolysis | Protein synthesis (in words) (HeLa cells; HeLa cells, unstressed): no measurable effects | Label (%), newly synthesized proteins (35S-methionine) (HeLa cells; 1 h): 94% | Label (%), newly synthesized proteins (35S-methionine) (HeLa cells; 2 h): 92% | Label (%), newly synthesized proteins (35S-methionine) (HeLa cells; 5 h): 103% | Label (%), newly synthesized proteins (35S-methionine) (HeLa cells; 7.5 h): 96% | Label (%), newly synthesized proteins (35S-methionine) (HeLa cells; 10 h): 97% | eIF2α phosphorylation [7]: no measurable effects

Structure (SMILES): CC(C)C[C@@H](C=O)NC(=O)[C@H](CC(C)C)NC(=O)[C@H](CC(C)C)NC(=O)OCc1ccccc1 [MG-132] (Cbz-Leu-Leu-Leu-aldehyde)
Effect of co-treatment on the Raphin1-induced decrease in R15B (R15B [1]): prevented

Effect of co-treatment on the Raphin1-induced decrease in R15B (R15B [1]): essentially abrogated
Structure (SMILES): Cc1cc(OCc2nnc(SC3CCCC3)n2-c2cccnc2)ccc1-c1ccc(S(C)(=O)=O)cc1 [NSM-873]

Binding to R15A-PP1c (in words) [4]: no detectable binding | Binding to PP1c alone (in words) (PP1c [5]): no detectable binding | Binding to R15B-PP1c (in words) [6]: no detectable binding
Structure (SMILES): N=C(N)N/N=C/c1ncccc1Cl [compound C3]

Structure (SMILES): C[C@@H]1C[C@@H]([C@H](O)CC2CC(=O)NC(=O)C2)C(=O)[C@@H](C)C1 [cycloheximide, Cycloheximide]
Liver steatosis (Oil Red O) (liver): caused liver steatosis
